Data on 17 compounds can be found in US20260193293A1, “PEPTIDES CAPABLE OF INHIBITING PROTEIN-PROTEIN INTERACTIONS AT GABAB1A SUBUNIT AND USES THEREOF” (UNIVERSITY OF COPENHAGEN, priority 2022, published 2026).

Non-standard residues stand in square brackets, D forms with d. Residues, ends and D or L forms follow the SMILES beside them. *: point of attachment. NMeT = CN[C@H](C(=O)O)[C@@H](C)O; NMeD = CN[C@@H](CC(=O)O)C(=O)O; NMeA = CN[C@@H](C)C(=O)O; Bn = c1ccc(C*)cc1; Sar = CNCC(=O)O

One experiment addresses Sushi domains (SD1/2) protein. Kind of experiment: Fluorescence polarization (FP) competition assay with AJAP-1probe, calculated Ki. In kind it is binding. The settings on record: Table 4, truncation and elongation scans of APP epitope; read-out: Ki (nM) mean ± SEM. The method, then:
Fluorescence polarization (FP). FP assay was employed to determine the binding affinity of peptides in flat bottom black 384-well plates (Corning Life Science) using a Safire2 plate reader (Tecan). All experiments were conducted in 1×PBS (pH 7.4) containing 1% bovine serum albumin (BSA) at rt. The fluorescence polarization values were measured using excitation/emission wavelengths of 530/580 nm. The instrumental Z-factor was adjusted to obtain the maximum fluorescence intensity and the G-factor was calibrated to give an initial millipolarization value of 20 mP. All FP assays including saturation or competition experiments were performed using 25 nM of TAMRA labeled peptides as probes. For saturation assay, the millipolarization values were measured after mixing of probes with 12 serial 1 to 1 diluted concentrations of Sushi domains (SD1/2) protein. All experiments were performed in triplicate and the data were plotted to the one-site binding model using GraphPad Prism 9 to calculate the Kd of probes. […] The experiments were performed at least in triplicate and the data were fitted to the sigmoidal dose response curve using GraphPad Prism 9 to obtain the IC50 of peptides. The Ki values were calculated according to Nikolovska-Coleska et al^310.
Consider `CC(=O)N[C@@H](CCC(=O)O)C(=O)N[C@@H](CC(=O)O)C(=O)N[C@@H](CC(=O)O)C(=O)N[C@@H](CO)C(=O)N[C@@H](CC(=O)O)C(=O)N[C@H](C(=O)N[C@@H](Cc1c[nH]c2ccccc12)C(=O)N[C@@H](Cc1c[nH]c2ccccc12)C(=O)NCC(=O)NCC(=O)N[C@@H](C)C(=O)N[C@@H](CC(=O)O)C(=O)N[C@H](C(=O)N[C@@H](CC(=O)O)C(=O)N[C@@H](Cc1ccc(O)cc1)C(=O)N[C@@H](C)C(=O)N[C@@H](CC(=O)O)C(N)=O)[C@@H](C)O)C(C)C` (Ac-EDDSDVWWGGADTDYAD-NH2), for which the Ki is 281 ± 4 nM.

The same experiment, now with this note: Table 7, Ala-, D-amino acids and N-methylation scans of APPWT; read-out: Ki (nM) mean ± SEM.
As for `CC(=O)N[C@@H](CCC(=O)O)C(=O)N[C@@H](CC(=O)O)C(=O)N[C@@H](CC(=O)O)C(=O)N[C@@H](CO)C(=O)N[C@@H](CC(=O)O)C(=O)N[C@H](C(=O)N[C@@H](Cc1c[nH]c2ccccc12)C(=O)N[C@@H](Cc1c[nH]c2ccccc12)C(=O)NCC(=O)NCC(=O)N[C@@H](C)C(=O)N[C@@H](CC(=O)O)C(=O)N[C@H](C(=O)N(C)[C@@H](CC(=O)O)C(N)=O)[C@@H](C)O)C(C)C` (Ac-EDDSDVWWGGADT[NMeD]-NH2), the Ki is 565 ± 23 nM.

In the case of `CC(=O)N[C@@H](CCC(=O)O)C(=O)N[C@@H](CC(=O)O)C(=O)N[C@@H](CC(=O)O)C(=O)N[C@@H](CO)C(=O)N[C@@H](CC(=O)O)C(=O)N[C@H](C(=O)N[C@@H](Cc1c[nH]c2ccccc12)C(=O)N[C@@H](Cc1c[nH]c2ccccc12)C(=O)NCC(=O)NCC(=O)N[C@@H](C)C(=O)N[C@@H](CC(=O)O)C(=O)N(C)[C@H](C(=O)N[C@@H](CC(=O)O)C(N)=O)[C@@H](C)O)C(C)C` (Ac-EDDSDVWWGGAD[NMeT]D-NH2), the Ki was 503 ± 13 nM.

For the compound `CC(=O)N[C@@H](CCC(=O)O)C(=O)N[C@@H](CC(=O)O)C(=O)N[C@@H](CC(=O)O)C(=O)N[C@@H](CO)C(=O)N[C@@H](CC(=O)O)C(=O)N[C@H](C(=O)N[C@@H](Cc1c[nH]c2ccccc12)C(=O)N[C@@H](Cc1c[nH]c2ccccc12)C(=O)NCC(=O)NCC(=O)N[C@@H](C)C(=O)N(C)[C@@H](CC(=O)O)C(=O)N[C@H](C(=O)N[C@@H](CC(=O)O)C(N)=O)[C@@H](C)O)C(C)C` (Ac-EDDSDVWWGGA[NMeD]TD-NH2), the Ki was 403 ± 14 nM.

With `CC(=O)N[C@@H](CCC(=O)O)C(=O)N[C@@H](CC(=O)O)C(=O)N[C@@H](CC(=O)O)C(=O)N[C@@H](CO)C(=O)N[C@@H](CC(=O)O)C(=O)N[C@H](C(=O)N[C@@H](Cc1c[nH]c2ccccc12)C(=O)N[C@@H](Cc1c[nH]c2ccccc12)C(=O)NCC(=O)NCC(=O)N(C)[C@@H](C)C(=O)N[C@@H](CC(=O)O)C(=O)N[C@H](C(=O)N[C@@H](CC(=O)O)C(N)=O)[C@@H](C)O)C(C)C` (Ac-EDDSDVWWGG[NMeA]DTD-NH2), the Ki is 704 ± 11 nM.

Take `CC(=O)N[C@@H](CCC(=O)O)C(=O)N[C@@H](CC(=O)O)C(=O)N[C@@H](CC(=O)O)C(=O)N[C@@H](CO)C(=O)N[C@@H](CC(=O)O)C(=O)N[C@H](C(=O)N[C@@H](Cc1c[nH]c2ccccc12)C(=O)N[C@@H](Cc1c[nH]c2ccccc12)C(=O)NCC(=O)N(C)CC(=O)N[C@@H](C)C(=O)N[C@@H](CC(=O)O)C(=O)N[C@H](C(=O)N[C@@H](CC(=O)O)C(N)=O)[C@@H](C)O)C(C)C` (Ac-EDDSDVWWG[Sar]ADTD-NH2): the Ki is 161 ± 2 nM.

Staying with this experiment, now noted: Table 10, deep mutational scanning validation variants of APPWT; read-out: Ki (nM) mean ± SEM.
On to `CC(=O)N[C@@H](CCC(=O)O)C(=O)N[C@@H](CC(=O)O)C(=O)N[C@@H](CC(=O)O)C(=O)N[C@@H](CO)C(=O)N[C@@H](CC(=O)O)C(=O)N[C@H](C(=O)N[C@@H](Cc1c[nH]c2ccccc12)C(=O)N[C@@H](Cc1c[nH]c2ccccc12)C(=O)NCC(=O)NCC(=O)N[C@@H](C)C(=O)N[C@@H](CC(=O)O)C(=O)N[C@@H](Cc1c[nH]c2ccccc12)C(=O)N[C@@H](CC(=O)O)C(N)=O)C(C)C` (Ac-EDDSDVWWGGADWD-NH2), for which the Ki was 459 ± 21 nM.

For `CC(=O)N[C@@H](CCC(=O)O)C(=O)N[C@@H](CC(=O)O)C(=O)N[C@@H](CC(=O)O)C(=O)N[C@@H](CO)C(=O)N[C@@H](CC(=O)O)C(=O)N[C@H](C(=O)N[C@@H](Cc1c[nH]c2ccccc12)C(=O)N[C@@H](Cc1c[nH]c2ccccc12)C(=O)NCC(=O)NCC(=O)N[C@@H](Cc1c[nH]cn1)C(=O)N[C@@H](CC(=O)O)C(=O)N[C@H](C(=O)N[C@@H](CC(=O)O)C(N)=O)[C@@H](C)O)C(C)C` (Ac-EDDSDVWWGGHDTD-NH2), the Ki is 346 ± 6 nM.

Regarding `CC(=O)N[C@@H](CCC(=O)O)C(=O)N[C@@H](CC(=O)O)C(=O)N[C@@H](CC(=O)O)C(=O)N[C@@H](CO)C(=O)N[C@@H](CC(=O)O)C(=O)N[C@H](C(=O)N[C@@H](Cc1c[nH]c2ccccc12)C(=O)N[C@@H](Cc1c[nH]c2ccccc12)C(=O)NCC(=O)NCC(=O)N[C@@H](CO)C(=O)N[C@@H](CC(=O)O)C(=O)N[C@H](C(=O)N[C@@H](CC(=O)O)C(N)=O)[C@@H](C)O)C(C)C` (Ac-EDDSDVWWGGSDTD-NH2), the Ki was 204 ± 4 nM.

Turning to `CC(=O)N[C@@H](CCC(=O)O)C(=O)N[C@@H](CC(=O)O)C(=O)N[C@@H](CC(=O)O)C(=O)N[C@@H](CO)C(=O)N[C@@H](CC(=O)O)C(=O)N[C@H](C(=O)N[C@@H](Cc1c[nH]c2ccccc12)C(=O)N[C@@H](Cc1c[nH]c2ccccc12)C(=O)NCC(=O)NCC(=O)N[C@@H](Cc1ccc(O)cc1)C(=O)N[C@@H](CC(=O)O)C(=O)N[C@H](C(=O)N[C@@H](CC(=O)O)C(N)=O)[C@@H](C)O)C(C)C` (Ac-EDDSDVWWGGYDTD-NH2), the Ki is 255 ± 11 nM.

Take `CC(=O)N[C@@H](CCC(=O)O)C(=O)N[C@@H](CC(=O)O)C(=O)N[C@@H](CC(=O)O)C(=O)N[C@@H](CO)C(=O)N[C@@H](CC(=O)O)C(=O)N[C@H](C(=O)N[C@@H](Cc1c[nH]c2ccccc12)C(=O)N[C@@H](Cc1c[nH]c2ccccc12)C(=O)NCC(=O)N1CCC[C@H]1C(=O)N[C@@H](C)C(=O)N[C@@H](CC(=O)O)C(=O)N[C@H](C(=O)N[C@@H](CC(=O)O)C(N)=O)[C@@H](C)O)C(C)C` (Ac-EDDSDVWWGPADTD-NH2): the Ki was 332 ± 13 nM.

With `CC(=O)N[C@@H](CCC(=O)O)C(=O)N[C@@H](CC(=O)O)C(=O)N[C@@H](CC(=O)O)C(=O)N[C@@H](CO)C(=O)N[C@@H](CC(=O)O)C(=O)N[C@H](C(=O)N[C@@H](Cc1c[nH]c2ccccc12)C(=O)N[C@@H](Cc1c[nH]c2ccccc12)C(=O)N[C@@H](Cc1c[nH]cn1)C(=O)NCC(=O)N[C@@H](C)C(=O)N[C@@H](CC(=O)O)C(=O)N[C@H](C(=O)N[C@@H](CC(=O)O)C(N)=O)[C@@H](C)O)C(C)C` (Ac-EDDSDVWWHGADTD-NH2), the Ki is 270 ± 4 nM.

The experiment is the same for the next values; noted with them: Table 13, peptides for affinity maturation; read-out: Ki (nM) mean ± SEM.
With `CC(=O)N[C@@H](CCC(=O)O)C(=O)N[C@@H](CC(=O)O)C(=O)N[C@@H](CC(=O)O)C(=O)N[C@@H](CO)C(=O)N[C@@H](CC(=O)O)C(=O)N[C@H](C(=O)N[C@@H](Cc1c[nH]c2ccccc12)C(=O)N[C@@H](Cc1c[nH]c2ccccc12)C(=O)NCC(=O)N(C)CC(=O)N[C@@H](C)C(=O)N[C@@H](CC(=O)O)C(=O)N[C@H](C(=O)N[C@@H](CC(=O)O)C(N)=O)[C@@H](C)O)C(C)C` (Ac-EDDSDVWWG[Sar]ADTD-NH2), the Ki is 161 ± 2 nM.

For `CC(=O)N[C@@H](CCC(=O)O)C(=O)N[C@@H](CC(=O)O)C(=O)N[C@@H](CC(=O)O)C(=O)N[C@@H](CO)C(=O)N[C@@H](CC(=O)O)C(=O)N[C@H](C(=O)N[C@@H](Cc1c[nH]c2ccccc12)C(=O)N[C@@H](Cc1c[nH]c2ccccc12)C(=O)N[C@@H](Cc1ccc(O)cc1)C(=O)NCC(=O)N(C)CC(=O)N[C@@H](C)C(=O)N[C@@H](CC(=O)O)C(=O)N[C@H](C(=O)N[C@@H](CC(=O)O)C(N)=O)[C@@H](C)O)C(C)C` (Ac-EDDSDVWWYG[Sar]ADTD-NH2), the Ki was 164 ± 2 nM.

On to `CC(=O)N[C@@H](CCC(=O)O)C(=O)N[C@@H](CC(=O)O)C(=O)N[C@@H](CC(=O)O)C(=O)N[C@@H](CO)C(=O)N[C@@H](CC(=O)O)C(=O)N[C@H](C(=O)N[C@@H](Cc1c[nH]c2ccccc12)C(=O)N[C@@H](Cc1c[nH]c2ccccc12)C(=O)N[C@@H](Cc1ccc(O)cc1)C(=O)NCC(=O)N(C)CC(=O)N[C@H](C(=O)NCC(=O)N[C@@H](CC(=O)O)C(=O)N[C@@H](CCC(=O)O)C(=O)N[C@@H](CC(=O)O)C(N)=O)[C@@H](C)O)C(C)C` (Ac-EDDSDVWWYG[Sar]TGDED-NH2), for which the Ki is 138 ± 5 nM.

Staying with this experiment, now noted: Table 16, ncAAs incorporated peptides; read-out: Ki (nM) mean ± SEM.
In the case of `CC(=O)N[C@@H](CCC(=O)O)C(=O)N[C@@H](CC(=O)O)C(=O)N[C@@H](CC(=O)O)C(=O)N[C@@H](CO)C(=O)N[C@@H](CC(=O)O)C(=O)N[C@H](C(=O)N[C@@H](Cc1c[nH]c2ccccc12)C(=O)N[C@@H](Cc1c[nH]c2ccccc12)C(=O)N[C@@H](Cc1ccc(OCc2ccccc2)cc1)C(=O)NCC(=O)N[C@@H](C)C(=O)N[C@@H](CC(=O)O)C(=O)N[C@H](C(=O)N[C@@H](CC(=O)O)C(N)=O)[C@@H](C)O)C(C)C` (Ac-EDDSDVWWY(Bn)GADTD-NH2), the Ki was 88 ± 4 nM.

With `CCOc1ccc(C[C@H](NC(=O)[C@H](Cc2c[nH]c3ccccc23)NC(=O)[C@H](Cc2c[nH]c3ccccc23)NC(=O)[C@@H](NC(=O)[C@H](CC(=O)O)NC(=O)[C@H](CO)NC(=O)[C@H](CC(=O)O)NC(=O)[C@H](CC(=O)O)NC(=O)[C@H](CCC(=O)O)NC(C)=O)C(C)C)C(=O)NCC(=O)N[C@@H](C)C(=O)N[C@@H](CC(=O)O)C(=O)N[C@H](C(=O)N[C@@H](CC(=O)O)C(N)=O)[C@@H](C)O)cc1` (Ac-EDDSDVWWY(Et)GADTD-NH2), the Ki was 113 ± 2 nM.

In the case of `COc1ccc(C[C@H](NC(=O)[C@H](Cc2c[nH]c3ccccc23)NC(=O)[C@H](Cc2c[nH]c3ccccc23)NC(=O)[C@@H](NC(=O)[C@H](CC(=O)O)NC(=O)[C@H](CO)NC(=O)[C@H](CC(=O)O)NC(=O)[C@H](CC(=O)O)NC(=O)[C@H](CCC(=O)O)NC(C)=O)C(C)C)C(=O)NCC(=O)N[C@@H](C)C(=O)N[C@@H](CC(=O)O)C(=O)N[C@H](C(=O)N[C@@H](CC(=O)O)C(N)=O)[C@@H](C)O)cc1` (Ac-EDDSDVWWY(Me)GADTD-NH2), the Ki is 109 ± 4 nM.
